Results published in patent US11000531B2, “Methods of treating certain depressive disorders and delirium tremens” (MARINUS PHARMACEUTICALS INC., priority 2016, dated 2021).

Legend:
[1] = system: women suffering from postpartum depression; conditions: women with postpartum depression, cited from earlier work
[2] = human plasma; cited from earlier work
[3] = Ganaxolone concentration reached in 30% Captisol solutions (HPLC); type: physicochemical; conditions: dry mixing method, after 90 hours of stirring
Procedure: 500 μl of 10% aqueous Polysorbate 80 solution in a 20 ml scintillation vial were combined with powdered ganaxolone (50 mg). The mixture was stirred to wet the ganaxolone. Solid Captisol (3.2 g), sufficient to form a 30% Captisol solution, was then added to the vial and the vial contents were mixed. Deionized water (8.0 g) was then added and the mixture was vigorously stirred at room temperature overnight to obtain a hazy solution. An aliquot was filtered through 0.2 μm syringe filter and ganaxolone concentration was assayed by HPLC to be 4.28 mg/ml.
Ganaxolone was vigorously stirred in 30% Captisol in the presence of 10% v/v ethanol overnight to obtain a 3.16 mg/ml ganaxolone solution.
Ganaxolone was vigorously stirred in 30% Captisol in the presence of 10% v/v glycerin overnight to obtain a 3.45 mg/ml ganaxolone solution.
Ganaxolone was vigorously stirred in 30% Captisol in the presence of 10% v/v propylene glycol overnight to obtain a 2.53 mg/ml ganaxolone solution.
Powdered ganaxolone (125 mg) was charged into 100 ml beaker. Captisol powder (7.9 g) was then added to the beaker. The mixture was mixed by stirring with a magnetic stir bar for 5 minutes. Deionized water (20.1 g) was weighed into a plastic cup. About half of the water was added into the beaker and the contents were vigorously stirred for 30 minutes to obtain a homogeneous mixture. […]

[4] = Ganaxolone solubility in water

Row | Compound | mean HAM-D score lower than placebo-treated subjects ([1]; end of sixty hour intravenous infusion, baseline HAM-D greater than 25) [points] | persistence of effects after infusion ([1]; after intravenous infusion) [days] | half-life [2] | ganaxolone concentration after prolonged stirring [3] | solubility [4] [µg/mL]
1 | CC(=O)[C@H]1CC[C@H]2[C@@H]3CC[C@H]4C[C@H](O)CC[C@]4(C)[C@H]3CC[C@]12C [Allopregnanolone, 3α,5α-tetrahydroprogesterone] | 12 | 30 | about 45 minutes |  | 
2 | CC(=O)[C@H]1CC[C@H]2[C@@H]3CC[C@H]4C[C@](C)(O)CC[C@]4(C)[C@H]3CC[C@]12C [Ganaxolone, 3α-hydroxy, 3β-methyl-5α-pregnan-20-one] |  |  |  | remained unchanged | < 1
